Experimental data from BigSolDB 2.1.

CO/N=C(\C(=O)N[C@@H]1C(=O)N2C(C(=O)O)=C(CSC(=O)c3ccco3)CS[C@H]12)c1csc(N)n1.Cl
Conditions	solubility (mole fraction)
in acetone, 283.36 K	1e-05
in acetone, 288.2 K	1.6e-05
in acetone, 293.15 K	2.7e-05
in acetone, 298.05 K	4.3e-05
in acetone, 302.87 K	7e-05
in acetone, 307.65 K	0.00011
in acetone, 313.45 K	0.000193
in acetone, 318.4 K	0.000313
in acetone, 322.35 K	0.000478
in ethanol, 283.35 K	0.00178
in ethanol, 288.15 K	0.00192
in ethanol, 293.15 K	0.00209
in ethanol, 298.15 K	0.00233
in ethanol, 303.1 K	0.00262
in ethanol, 307.95 K	0.00292
in ethanol, 313.55 K	0.00335
in ethanol, 318.75 K	0.00384
in ethanol, 322.65 K	0.00421
in isopropanol, 283.2 K	0.000235
in isopropanol, 288.2 K	0.000255
in isopropanol, 293.15 K	0.000311
in isopropanol, 298.15 K	0.000402
in isopropanol, 303.05 K	0.000535
in isopropanol, 308 K	0.000649
in isopropanol, 312.8 K	0.000793
in isopropanol, 318.45 K	0.001
in isopropanol, 324.35 K	0.00134
in methanol, 283.25 K	0.00952
in methanol, 288.25 K	0.00992
in methanol, 293.15 K	0.0105
in methanol, 297.85 K	0.0112
in methanol, 300.55 K	0.0116
in methanol, 307.35 K	0.0127
in methanol, 313.3 K	0.0137
in methanol, 317.95 K	0.0148
in methanol, 320.65 K	0.0155
in n-propanol, 283.55 K	0.000534
in n-propanol, 288.55 K	0.000573
in n-propanol, 293.35 K	0.000646
in n-propanol, 298.35 K	0.000717
in n-propanol, 303.35 K	0.000802
in n-propanol, 308.05 K	0.000922
in n-propanol, 312.95 K	0.00103
in n-propanol, 317.95 K	0.00117
in n-propanol, 322.75 K	0.00135
